Experimental data taken from US11510931B2, “Compositions and methods for treating ophthalmic conditions” (MEDICON PHARMACEUTICALS, INC., priority 2016, dated 2022).

Tests used:
Staphylococcus aureus = experiment: Disk diffusion antimicrobial susceptibility with PS-impregnated antibiotic disks; type: cell-based; settings: 24 h, mean ± SD
Procedure: Briefly, Staphylococcus aureus grown in culture was seeded evenly on Muller-Hinton II Agar plates (BD Diagnostic Systems) at the standard concentration of 2×10^8 colony-forming units per mL. Antibiotic antimicrobial susceptibility disks (Thermo Scientific Oxoid™) were impregnated with one of six concentrations of PS (0%, 1%, 2%, 3%, 6%, 9%); 10 μL of each was evenly dispensed on each disk. An additional control was disks with no PS and no vehicle. The growth of bacteria around each disk was monitored and the area of “no growth” around each disk was measured 24 h later.

MMPs = experiment: General MMP activity in rabbit cornea (FRET peptide); type: in vivo
Procedure: The general activity of MMPs was determined in the corneas of three groups of rabbits. This MMP activity assay employs a fluorescence resonance energy transfer (FRET) peptide as a generic MMP indicator. Rabbits were treated with PS 1.6% or ketorolac 0.5% eye drops topically applied to their eyes or were not treated (naïve group). Results in relative fluorescence units (RFU)/mg protein (mean±SEM). Naïve=1,328±123; PS=749±218; Ketoroloac=1,272±106 (p<0.03 vs PS).
In an acute experiment, naïve rabbits were treated with either PS or ketorolac (both administered topically) for 1 h and determined the activity of MMP in the cornea. This assay determines the activity of MMPs collectively in a given tissue.

[1] = tested on: concanavalin A-induced dry eye in rabbits; experiment: Concanavalin A (Con A)-induced dry eye disease (DED) model in rabbits: TBUT, Schirmer test, tear osmolarity, tear lactoferrin; type: in vivo, rabbit; settings: after 1 week of treatment with NSAID; FIG. 5
Procedure: To assess the efficacy of PS on DED an improved concanavalin A model was used. In the concanavalin A model, dry eye is induced by injecting the lacrimal glands of a mammal with concanavalin A, a selective T cell mitogen that induces a lymphocytic infiltrate in these glands. The concanavalin A model is generally described in (Barabino S. Animal models of dry eye. Arch Soc Esp Oftalmol. 2005; 80(12):693-4). Concanavalin A was injected to the lacrimal glands under ultrasound guidance, thus eliminating injections to the vicinity of the gland (as opposed to the gland itself). The head and the tail of the major lacrimal gland of the rabbit were injected separately. The dose of concanavalin A was optimized for DED signs.
In the testing described below, four markers of DED are monitored: the tear break up time (TBUT), the Schirmer test, tear osmolarity, and tear lactoferrin levels. All assays were performed at the same clock time (±1 hr) to avoid assay variability on account of circadian variations.
In an efficacy experiment using the concanavalin A model, one group of rabbits was treated with compound 5, also known as phosphosulindac and abbreviated as PS, 1.5% eye drops and one group with vehicle. […] It is thus clear that PS applied topically suppresses DED.
Con A was injected under ultrasound guidance into all the lacrimal glands and the success of the injection was verified by a post-injection ultrasound image (see FIG. 1 and FIG. 2). […] This variation explains why the blind injections recommended in the original method are often unsuccessful. This was confirmed by mixing the Con A solution with methylene blue and tracking its course after injection. In about ⅓ of the cases, Con A ended up outside the gland.
Four parameters of efficacy were evaluated instead of the usual one or two. They include (a) the tear break up time (TBUT), determined using 0.2% fluorescein over the eye and recording the time taken to develop black dots, lines or obvious disruption of the fluorescein film; (b) tear osmolarity, measured using TearLab Osmolarity Test and following the manufacturer's instructions (TearLab Corp., San Diego, Calif.); (3) Schirmer tear test (STT), determined using Schirmer strips (EagleVision, Denville, N.J.) inserted between the cornea and the palpebral conjunctiva at the mid-point of the lower lid and measuring the length of moistened strip at 5 min; and (4) tear lactoferrin levels measured by ELISA kit (MyBiosource, San Diego, Calif.) following the instructions of the manufacturer. All four have been used in clinical practice and correlate with the clinical activity of the disease. The STT is the least reliable and, as result, it is clinically used less than half as frequently as TBUT.
The injections of Con A to the lacrimal glands were repeated weekly as needed. When longer than a 1-week periods of study are needed, repeat injections prolong dry eye for at least 3 weeks, making the originally acute model chronic.
PS Suppresses Con A—Induced Dry Eye in Rabbits. The effect of PS on dry eye was determined in New Zealand White (NZW) rabbits, 2-3 kg (Charles River Labs, Waltham, Mass.). These rabbits were housed singly in rooms with strict temperature (70±5° F.) and humidity (45±5%) control and acclimated for at least 2 weeks prior to induction of dry eye by injection of Con A as above. NZW rabbits with Con A-induced dry eye (three sets of injections) were treated with PS formulated as nanoparticles and administered topically as eye drops 3×/day for 21 days, starting on the day of Con A injection. […] Similar results were obtained on days 5 and 14 (data not shown).
Using this model, we compared the effect of PS to that of cyclosporine and lifitegrast. Rabbits were treated for 6 days with PS as above or cyclosporine 0.05% or lifitegrast 5% eye drops 3×/day. In addition to determining TUBT, osmolarity and STT, we measured the levels of IL-8 and IL-1β in the ILGs of the rabbits harvested at euthanasia. […]

PGE2 = PGE2 levels in tears and cornea of rabbits by ELISA; type: in vivo, rabbit; settings: for PGE2 levels in the cornea: administered once topically, 1 h later, FIG. 9B; for PGE2 levels in the cornea, % of the vehicle value: day 6, PS 2.3%, diclofenac 0.1%
Procedure: The effects of PS, ketorolac and dicofenac (the latter two ophthalmic NSAIDs known to induce corneal melt) on the tear levels of PGE2 in rabbits with concanavalin A-induced dry eye were compared. Three eye drops of PS 1.5% or of commercially available ketorolac 0.5% were given at 0 time, and 1 h later to rabbits with concanavalin A-induced DED. Tears were obtained at 2 h and the levels of PGE2 were determined by ELISA. PGE2 in tears of naïve rabbits (not exposed to concanavalin A nor treated) was also measured. The PGE2 levels (mean±SEM) were: Naïve, 110.4±12.6 ng/ml; PS-treated, 115.4±15.8 ng/ml; Ketorolac-treated, 77.7±8.7 ng/ml. The difference in PS vs. ketorolac was significant, p<0.02; as was the difference in ketorolac vs naïve, p<0.03. Regarding this parameter, PS differs radically form ketorolac, which induces corneal melt.
Levels of PGE2 in the corneas of three groups of rabbits were determined by ELISA. Rabbits were treated with PS 1.6% or ketorolac 0.5% eye drops topically applied to their eyes or were not treated (naïve group). Results in pg/mg protein (mean±SEM). Naïve=787.3±96.3; PS=880.6±110.3; Ketrolorac=247.2±187.4 (p<0.01 vs PS).
Rabbits with DED induced by concanavalin A as above were treated for 6 days with vehicle, or PS 2.3% or ketorolac 0.5% or diclofenac 0.1%. Compared to the vehicle group, on day 6 the PGE2 levels in the cornea were 106% of the vehicle value in the PS group (not a statistically significant difference), 1.3% in the ketorolac group (p<0.0001 vs. vehicle, and 2.3% in the diclofenac group (p<0.0001 vs. vehicle).
It was determined that the levels of PGE2 in rabbit tears in three groups of rabbits, naïve and those with Con A-induced DED that were treated for 1 week either with PS or vehicle.
In an acute experiment, administered once topically to the eyes of four groups of rabbits with Con A-induced DED was one of the following: vehicle, PS, ketorolac or diclofenac; the latter two are NSAIDs used for the treatment of ocular inflammation and pain. It was determined that the levels of PGE2 in the cornea of these rabbits obtained 1 h later as well as in the corneas of naïve rabbits.

[2] = tested on: cornea of New Zealand white rabbits; experiment: Corneal touch threshold (CTT), Cochet-Bonnet aesthesiometer; type: in vivo, rabbit; settings: Lidocaine 1%
Procedure: The analgesic effect of PS was determined by measuring the corneal touch threshold (CTT) using the Luneau Cochet-Bonnet Aeshesiometer (Western Ophthalmics, Lynwood, Wash.), an adjustable nylon monofilament with a defined diameter, which is applied in different lengths to the center of the cornea. This device is generally described in Lima L, Lange R R, Turner-Giannico A, Montiani-Ferreira F. Evaluation of standardized endodontic paper point tear test in New Zealand white rabbits and comparison between corneal sensitivity followed tear tests. Vet Ophthalmol. 2015; 18 Suppl 1:119-24.
A stimulus produced by the filament that reaches the CTT induces a corneal reflex, consisting of prompt eyelid closure. The CTT is quantified as centimeter length of the filament necessary to cause the blink reflex.
The CTT is determined before (baseline) and at various time points after the application of the test compound (PS). PS was formulated either in β-cyclodextrin (42 or 8 mg/ml) or in a nanocarrier (19 mg/ml). The test drug was formulated in a nanocarrier by the emulsion and evaporation method (Vauthier C, Bouchemal K. Methods for the Preparation and Manufacture of Polymeric Nanoparticles. Pharmaceutical Research; 2009; 26:1025-1058). The formulated stable drug suspension consisted of polylactic acid and polyethylene glycol (PLLA(10k)-PEG(2k)); sodium cholate; and PS. The vehicle control was either β-cyclodextrin or the nanocarrier without PS. Commercially available lidocaine 1% was used as a positive control.
To each eye of adult New Zealand white rabbits was applied […] drops of PS or vehicle or lidocaine, with 5 minutes between each drop. The time of the last drop was taken as the 0 time.
The analgesic effect of PS was further examined on the surface of the eye by determining the corneal touch threshold (CTT) using the Luneau Cochet-Bonnet Aesthesiometer (Western Ophthalmics, Lynwood, Wash.) an adjustable nylon monofilament with a defined diameter, which is applied in different lengths to the center of the cornea.

[3] = tested on: chorioallantoic membrane (CAM); experiment: Chorioallantoic membrane (CAM) neovascularization assay; type: in vivo, chicken; settings: VEGF alone; day 4; Mean ± SEM
Procedure: Second, the effect of PS on new vessel formation (neovascularization) was evaluated using the chorioallantoic membrane (CAM) assay. In this assay, fertilized white chicken eggs (SPF Premium, Charles River Laboratory, North Franklin, Conn.) were incubated at 37° C. in 70% humidity for 3 days. The embryos were then incubated ex vivo in a sterile Petri dish for 7 days. Gelatin sponges adsorbed with or without VEGF plus PS or water (vehicle control) were implanted on the CAM surface and the neovasculature was counted on day 4 post implantation under a dissecting microscope.

[4] = antibiotic disk with PS 0% (vehicle only)
[5] = rabbits, PS 1.6% or ketorolac 0.5% eye drops, mean±SEM
[6] = Con A DED rabbits, ketorolac 0.5%

Row | Compound | Inhibition Zone (Staphylococcus aureus; [4]) | Inhibition Zone (Staphylococcus aureus; antibiotic disk with PS 1%) | Inhibition Zone (Staphylococcus aureus; antibiotic disk with PS 2%) | Inhibition Zone (Staphylococcus aureus; antibiotic disk with PS 3%) | Inhibition Zone (Staphylococcus aureus; antibiotic disk with PS 6%) | Inhibition Zone (Staphylococcus aureus; antibiotic disk with PS 9%) | TBUT, osmolarity and STT [1] | PGE2 levels in the cornea (PGE2; Con A DED rabbits) | PGE2 levels in the cornea, % of the vehicle value (PGE2; [6]) | further results
1 | O=C(O)c1cn(C2CC2)c2cc(N3CCNCC3)c(F)cc2c1=O [Ciprofloxacin] | 30.0 ± 0.0 mm | 30.3 ± 0.6 mm | 29.7 ± 0.6 mm | 29.3 ± 0.6 mm | 27.7 ± 0.4 mm | 29.7 ± 0.6 mm | – | – | – | –
2 | O=C(c1ccccc1)c1ccc2n1CCC2C(=O)O (stereo not shown) [Ketorolac, ketorolac] | – | – | – | – | – | – | failed to improve | suppressed nearly completely | 1.3% | MMP activity in the cornea (MMPs; naïve rabbits, topical, 1 h): failed to affect; general activity of MMPs in the corneas (MMPs; [5]): 1,272±106 RFU/mg protein; PGE2 levels in tears (PGE2; Con A DED rabbits, three eye drops at 0 and 1 h, tears at 2 h, PS 1.5%, ketorolac 0.5%, mean±SEM): 77.7 ± 8.7 ng/mL; PGE2 levels in the corneas (PGE2; [5]): 247.2±187.4 pg/mg protein
3 | C[C@H]1COc2c(N3CCN(C)CC3)c(F)cc3c(=O)c(C(=O)O)cn1c23 [Levofloxacin] | 32.3 ± 0.6 mm | 32.7 ± 0.6 mm | 32.0 ± 0.0 mm | 31.7 ± 0.6 mm | 32.3 ± 1.5 mm | 31.0 ± 1.0 mm | – | – | – | –
4 | CCN(CC)CC(=O)Nc1c(C)cccc1C [Lidocaine, lidocaine, reference compound] | – | – | – | – | – | – | – | – | – | Corneal touch threshold (CTT) ([2]; 1 min): 1.5 ± 1.3 centimeter; Corneal touch threshold (CTT) ([2]; 5 min): 2.3 ± 1.5 centimeter; Corneal touch threshold (CTT) ([2]; 10 min): 3.1 ± 1.9 centimeter; Corneal touch threshold (CTT) ([2]; 20 min): 4.0 ± 1.3 centimeter; Corneal touch threshold (CTT) ([2]; 30 min): 5.8 ± 0.6 centimeter; Corneal touch threshold (CTT) ([2]; 45 min): 5.8 ± 0.6 centimeter; Corneal touch threshold (CTT) ([2]; 60 min): 6.0 ± 0.0 centimeter; Corneal touch threshold (CTT) ([2]; baseline): 6.0 ± 0.0 centimeter
5 | O=C(O)Cc1ccccc1Nc1c(Cl)cccc1Cl [diclofenac] | – | – | – | – | – | – | failed to improve | suppressed nearly completely | 2.3% | –
6 | VEGF [reference compound] | – | – | – | – | – | – | – | – | – | # of new vessels [3]: 62.3 ± 1.8
